For one test, the target named is T1, mutant MGL (Homo sapiens, UniProt Q99685, L169S/L176S).
T1 construct: purified mutant MGL (mut-MGLL 11-313 L179S L186S)
T1 sequence (Q99685 1-303 L169S/L176S): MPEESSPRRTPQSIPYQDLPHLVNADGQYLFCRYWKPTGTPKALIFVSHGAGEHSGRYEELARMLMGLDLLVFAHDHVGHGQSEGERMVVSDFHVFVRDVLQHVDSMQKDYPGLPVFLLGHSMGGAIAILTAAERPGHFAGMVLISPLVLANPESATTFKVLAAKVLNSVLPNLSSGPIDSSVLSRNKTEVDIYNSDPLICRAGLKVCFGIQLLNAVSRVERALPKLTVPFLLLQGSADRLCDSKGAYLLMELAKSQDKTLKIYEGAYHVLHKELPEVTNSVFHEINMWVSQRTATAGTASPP
The test can be described thus: MGL ThermoFluor Assay - Mutant. Format: binding. The conditions noted are these: 0.07 mg/ml mutant MGL, 100 μM ANS, pH 7.0. Here is the method:
The ThermoFluor (TF) assay is a 384-well plate-based binding assay that measures thermal stability of proteins^1,2. The experiments were carried out using instruments available from Johnson & Johnson Pharmaceutical Research & Development, LLC. TF dye used in all experiments was 1,8-ANS (Invitrogen: A-47). Final TF assay conditions used for MGL studies were 0.07 mg/ml of mutant MGL, 100 μM ANS, 200 mM NaCl, 0.001% Tween-20 in 50 mM PIPES (pH=7.0).
Screening compound plates contained 100% DMSO compound solutions at a single concentration. […] Columns 12 and 24 were used as DMSO reference and contained no compound. […] Following compound dispension, protein and dye solutions were added to achieve the final assay volume of 3 μL.
Bar-coded assay plates were robotically loaded onto a thermostatically controlled PCR-type thermal block and then heated from 40 to 90° C. degrees at a ramp-rate of 1° C./min for all experiments. Fluorescence was measured by continuous illumination with UV light (Hamamatsu LC6), supplied via fiber optics and filtered through a band-pass filter (380-400 nm; >60D cutoff). Fluorescence emission of the entire 384-well plate was detected by measuring light intensity using a CCD camera (Sensys, Roper Scientific) filtered to detect 500±25 nm, resulting in simultaneous and independent readings of all 384 wells. A single image with 20-sec exposure time was collected at each temperature, and the sum of the pixel intensity in a given area of the assay plate was recorded vs temperature and fit to standard equations to yield the Tm^1. • 1.
The Kd values for certain compounds of Formula (I) were determined from a fit of the equation to the concentration-response plot of the fractional activity as a function of […]. For some experiments, quantitative NMR spectroscopy (qNMR) was used to measure concentration of the initial 100% DMSO compound solutions and, using the same fitting method, qKd values were determined.
Background: In DSF a fluorescence change marks the thermal transition of the protein.

The next test addresses T2, MGL (Rattus norvegicus, UniProt Q8R431).
T2 construct: one g rat brain was homogenized using a Polytron homogenizer; from tissue; host or cells: rat brain homogenate
T2 sequence (Q8R431 1-303): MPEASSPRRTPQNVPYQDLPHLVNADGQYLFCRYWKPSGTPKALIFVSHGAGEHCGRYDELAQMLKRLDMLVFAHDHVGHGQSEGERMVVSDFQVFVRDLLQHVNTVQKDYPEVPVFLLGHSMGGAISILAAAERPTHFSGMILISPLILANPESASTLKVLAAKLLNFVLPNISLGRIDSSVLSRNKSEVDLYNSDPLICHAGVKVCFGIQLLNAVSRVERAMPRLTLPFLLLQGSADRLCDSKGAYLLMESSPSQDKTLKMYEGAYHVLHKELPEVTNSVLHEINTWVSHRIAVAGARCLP
The test can be described thus: 2-AG Accumulation Assay in rat brain homogenate. The class given is biochemical. The conditions noted are these: percent of vehicle; for activity at 1 µM: compound @1 µM, read-out: Rat Brain 2AG % VehCntrl (%) @1 µM; for activity at 10 µM: compound @10 µM, read-out: Rat Brain 2AG % VehCntrl (%) @10 µM.

Test [1] concerns the target T3, mutant MGL (mut-MGLL 11-313 L179S L186S) (Homo sapiens, UniProt Q99685, L169S/L176S).
T3 construct: purified mutant MGL (mut-MGLL 11-313 L179S L186S)
T3 sequence (Q99685 1-303 L169S/L176S): T1 sequence (Q99685 1-303 L169S/L176S)
The test can be described thus: MGL Enzyme Activity Assay, purified mutant MGL, 4MU-B substrate. Format: biochemical. The conditions noted are these: mutant MGL 5 nM, 4MU-B 10 μM, 37° C.; read-out: MGL mutant inh IC50. The protocol:
All rate-based assays were performed in black 384-well polypropylene PCR microplates (Abgene) in a total volume of 30 μL. Substrate 4-methylumbelliferyl butyrate (4MU-B; Sigma) and either purified mutant MGL (mut-MGLL 11-313 L179S L186S) or purified wild type MGL (wt-MGLL 6H-11-313) were diluted separately into 20 mM PIPES buffer (pH=7.0), containing 150 mM NaCl and 0.001% Tween 20. Compounds of Formula (I), including Formulas I(a), I(b), and I(c), were pre-dispensed (50 nL) into the assay plate using a Cartesian Hummingbird prior to adding 4MU-B (25 μL of 1.2× solution to a final concentration of 10 μM) followed by enzyme (5 μL of a 6× solution to a final concentration of 5 nM) to initiate the reaction. Final compound concentrations ranged from 17 to 0.0003 μM. The fluorescence change due to 4MU-B cleavage was monitored with excitation and emission wavelengths of 335 and 440 nm, respectively, and a bandwidth of 10 nm (Safire^2, Tecan) at 37° C. for 5 min.
The IC50 values for the following compounds were determined using Microsoft Office Excel from a fit of the equation to the concentration-response plot of the fractional activity as a function of inhibitor concentration.

A value given as a limit tells only on which side of the number the result lay.

One may read the Kd as a measure of binding affinity in units of concentration. Lower therefore signals higher affinity. A word on the IC50: it is the concentration needed to halve the response being measured. In turn, `O=C(c1cc2ccc(C(F)(F)F)cc2s1)N1CC(N2CC(N3Cc4ccccc4C3=O)C2)C1` [Cpd 81, 2-(1′-{[6-(Trifluoromethyl)-1-benzothiophen-2-yl]carbonyl}-1,3′-biazetidin-3-yl)-2,3-dihydro-1H-isoindol-1-one] displayed a Kd at mutant MGL of 16 nM. In addition, at MGL, the activity at 1 µM is 192% and the activity at 10 µM is 409%. The IC50 in test [1] was 19 nM.
In turn, `O=C(c1sc2cc(Br)ccc2c1Cl)N1CC(N2CC(N3Cc4ccccc4C3=O)C2)C1` [Cpd 75, 2-{1′-[(6-Bromo-3-chloro-1-benzothiophen-2-yl)carbonyl]-1,3′-biazetidin-3-yl}-2,3-dihydro-1H-isoindol-1-one] yielded a Kd on mutant MGL of 7 nM. For the same compound, the IC50 in test [1] turned out to be 15 nM.
For `O=C(NC1CN(C2CN(C(=O)c3ccc4ccn(-c5ccccc5)c4c3)C2)C1)c1nccs1` [Cpd 27, N-{1′-[(1-Phenyl-1H-indol-6-yl)carbonyl]-1,3′-biazetidin-3-yl}-1,3-thiazole-2-carboxamide], the Kd at mutant MGL amounted to 446 nM. Moreover, the IC50 in test [1] turned out to be 167 nM.
The compound `O=C(c1ccc2nc(-c3ccccc3)oc2c1)N1CC(N2CC(N3Cc4ccccc4C3=O)C2)C1` [Cpd 84, 2-{1′-[(2-Phenyl-1,3-benzoxazol-6-yl)carbonyl]-1,3′-biazetidin-3-yl}-2,3-dihydro-1H-isoindol-1-one] returned a Kd on mutant MGL of 60 nM. Besides, at MGL, the activity at 1 µM amounted to 152% and the activity at 10 µM worked out at 435%. The IC50 in test [1] turned out to be 31 nM.
For the compound `O=C(NC1CN(C2CN(C(=O)c3cc4c(C(F)(F)F)cccc4s3)C2)C1)c1nccs1` [Cpd 8, N-(1′-{[4-(Trifluoromethyl)-1-benzothiophen-2-yl]carbonyl}-1,3′-biazetidin-3-yl)-1,3-thiazole-2-carboxamide], the affinity on mutant MGL, expressed as Kd, was 128 nM. Further, the activity at 1 µM on MGL stood at 127%. The IC50 in test [1] is 12 nM.
`O=C(NC1CN(C2CN(C(=O)c3nc4cc(C(F)(F)F)ccc4s3)C2)C1)c1nccs1` [Cpd 47, N-(1′-{[5-(Trifluoromethyl)-1,3-benzothiazol-2-yl]carbonyl}-1,3′-biazetidin-3-yl)-1,3-thiazole-2-carboxamide] registered a Kd at mutant MGL of 2500 nM. Also, in test [1], the IC50 turned out to be 4750 nM.
`O=C(c1ccc2nc(-c3cccc(C(F)(F)F)c3)oc2c1)N1CC(N2CC(N3Cc4ccccc4C3=O)C2)C1` [Cpd 78, 2-[1′-({2-[3-(Trifluoromethyl)phenyl]-1,3-benzoxazol-6-yl}carbonyl)-1,3′-biazetidin-3-yl]-2,3-dihydro-1H-isoindol-1-one] yielded a Kd at mutant MGL of 40 nM. For the same compound, in test [1], the IC50 came out at 17 nM.
In turn, `O=C(NC1CN(C2CN(C(=O)c3ccc4nc(Br)sc4c3)C2)C1)c1cscn1` [Cpd 46, N-{1′-[(2-Bromo-1,3-benzothiazol-6-yl)carbonyl]-1,3′-biazetidin-3-yl}-1,3-thiazole-4-carboxamide] registered a Kd at mutant MGL of 3400 nM. The IC50 in test [1] is 3750 nM.
For `O=C(NC1CN(C2CN(C(=O)c3ccc(Cc4ccccc4)cc3)C2)C1)c1ccccc1` [Cpd 31, N-{1′-[(4-Benzylphenyl)carbonyl]-1,3′-biazetidin-3-yl}benzamide], the Kd on mutant MGL stood at 154 nM. In test [1], the IC50 was determined as 270 nM.
On to `O=C(c1ccc(-c2ccccc2)cc1)N1CC(N2CC(N3Cc4ccccc4C3=O)C2)C1` [Cpd 92, 2-[1′-(Biphenyl-4-ylcarbonyl)-1,3′-biazetidin-3-yl]-2,3-dihydro-1H-isoindol-1-one], for which the Kd on mutant MGL turned out to be 100 nM. The IC50 in test [1] came to 242 nM.
In the case of `O=C(NC1CN(C2CN(C(=O)c3ccc(Oc4ccccc4)cc3)C2)C1)c1ccccc1` [Cpd 45, N-{1′-[(4-Phenoxyphenyl)carbonyl]-1,3′-biazetidin-3-yl}benzamide], the Kd on mutant MGL worked out at 833 nM. In addition, in test [1], the IC50 worked out at 2780 nM.
As to `O=C(NC1CN(C2CN(C(=O)c3ccc(Cc4cccc(C(F)(F)F)c4)cc3)C2)C1)c1nccs1` [Cpd 20, N-[1′-({4-[3-(Trifluoromethyl)benzyl]phenyl}carbonyl)-1,3′-biazetidin-3-yl]-1,3-thiazole-2-carboxamide], the activity at 10 µM on MGL came out at 977%. Further, the IC50 in test [1] was 65 nM.
Compound `O=C(c1ccc(Cc2ccccc2)cc1)N1CC(N2CC(N3Cc4ccccc4C3=O)C2)C1` [Cpd 94, 2-{1′-[(4-Benzylphenyl)carbonyl]-1,3′-biazetidin-3-yl}-2,3-dihydro-1H-isoindol-1-one] returned an equilibrium dissociation constant (Kd) at mutant MGL of 91 nM. Also, the IC50 in test [1] was 412 nM.
As for `O=C(NC1CN(C2CN(C(=O)c3ccc4c(-c5ccccc5)cccc4c3)C2)C1)c1nccs1` [Cpd 53, N-{1′-[(5-Phenylnaphthalen-2-yl)carbonyl]-1,3′-biazetidin-3-yl}-1,3-thiazole-2-carboxamide], the activity at 10 µM at MGL turned out to be 722%. The half-maximal inhibitory concentration (IC50) in test [1] was less than 5 nM.
`O=C(c1cc2cc(Br)ccc2s1)N1CC(N2CC(N3Cc4ccccc4C3=O)C2)C1` [Cpd 93, 2-{1′-[(5-Bromo-1-benzothiophen-2-yl)carbonyl]-1,3′-biazetidin-3-yl}-2,3-dihydro-1H-isoindol-1-one] yielded a Kd on mutant MGL of 76.9 nM. Besides, the IC50 in test [1] amounted to 360 nM.
Regarding `O=C(NC1CN(C2CN(C(=O)c3ccc4c(Br)cccc4c3)C2)C1)c1nccs1` [Cpd 19, N-{1′-[(5-Bromonaphthalen-2-yl)carbonyl]-1,3′-biazetidin-3-yl}-1,3-thiazole-2-carboxamide], the activity at 10 µM at MGL came to 418%. In test [1], the IC50 came out at 63 nM.
For `O=C(NC1CN(C2CN(C(=O)c3ccc4c(Br)cccc4c3)C2)C1)c1ccccc1` [Cpd 24, N-{1′-[(5-Bromonaphthalen-2-yl)carbonyl]-1,3′-biazetidin-3-yl}benzamide], on MGL, the activity at 10 µM was found to be 73%. Besides, the IC50 in test [1] amounted to 99 nM.
For `O=C(NC1CN(C2CN(C(=O)c3ccc(-c4ccccc4)cc3)C2)C1)c1ccccc1` [Cpd 39, N-[1′-(Biphenyl-4-ylcarbonyl)-1,3′-biazetidin-3-yl]benzamide], on mutant MGL, the affinity, expressed as Kd, was 222 nM. Moreover, the IC50 in test [1] worked out at 604 nM.
Turning to `O=C(c1ccc2c(ccn2-c2ccccc2C(F)(F)F)c1)N1CC(N2CC(N3Cc4ccccc4C3=O)C2)C1` [Cpd 89, 2-[1′-({1-[2-(Trifluoromethyl)phenyl]-1H-indol-5-yl}carbonyl)-1,3′-biazetidin-3-yl]-2,3-dihydro-1H-isoindol-1-one], the activity at 10 µM at MGL came out at 663%. Moreover, in test [1], the IC50 is 98 nM.
At mutant MGL, `O=C(NC1CN(C2CN(C(=O)c3ccc(Br)cc3)C2)C1)c1nccs1` [Cpd 43, N-{1′-[(4-Bromophenyl)carbonyl]-1,3′-biazetidin-3-yl}-1,3-thiazole-2-carboxamide] displayed a Kd of 3330 nM. Besides, the IC50 in test [1] turned out to be 1680 nM.

Source of the values: US8759333B2, “Di-azetidinyl diamide as monoacylglycerol lipase inhibitors” (Janssen Pharmaceutica, NV, priority 2010, dated 2014).
